Measurements from patent publication US10758534B2 (Vertex Pharmaceuticals Incorporated, priority 2014, dated 2020).

These compounds were tested against T1, F508del (Homo sapiens, UniProt P13569, DEL508-508) (assay: Protocol 1: membrane potential optical assay (FLIPR III, voltage sensing dye), identification of potentiator compounds). Conditions: Table 3, compounds of Table 1.
T1 construct: expressed in transfected cells
T1 sequence (P13569 with tags, fused parts or gaps DEL508-508): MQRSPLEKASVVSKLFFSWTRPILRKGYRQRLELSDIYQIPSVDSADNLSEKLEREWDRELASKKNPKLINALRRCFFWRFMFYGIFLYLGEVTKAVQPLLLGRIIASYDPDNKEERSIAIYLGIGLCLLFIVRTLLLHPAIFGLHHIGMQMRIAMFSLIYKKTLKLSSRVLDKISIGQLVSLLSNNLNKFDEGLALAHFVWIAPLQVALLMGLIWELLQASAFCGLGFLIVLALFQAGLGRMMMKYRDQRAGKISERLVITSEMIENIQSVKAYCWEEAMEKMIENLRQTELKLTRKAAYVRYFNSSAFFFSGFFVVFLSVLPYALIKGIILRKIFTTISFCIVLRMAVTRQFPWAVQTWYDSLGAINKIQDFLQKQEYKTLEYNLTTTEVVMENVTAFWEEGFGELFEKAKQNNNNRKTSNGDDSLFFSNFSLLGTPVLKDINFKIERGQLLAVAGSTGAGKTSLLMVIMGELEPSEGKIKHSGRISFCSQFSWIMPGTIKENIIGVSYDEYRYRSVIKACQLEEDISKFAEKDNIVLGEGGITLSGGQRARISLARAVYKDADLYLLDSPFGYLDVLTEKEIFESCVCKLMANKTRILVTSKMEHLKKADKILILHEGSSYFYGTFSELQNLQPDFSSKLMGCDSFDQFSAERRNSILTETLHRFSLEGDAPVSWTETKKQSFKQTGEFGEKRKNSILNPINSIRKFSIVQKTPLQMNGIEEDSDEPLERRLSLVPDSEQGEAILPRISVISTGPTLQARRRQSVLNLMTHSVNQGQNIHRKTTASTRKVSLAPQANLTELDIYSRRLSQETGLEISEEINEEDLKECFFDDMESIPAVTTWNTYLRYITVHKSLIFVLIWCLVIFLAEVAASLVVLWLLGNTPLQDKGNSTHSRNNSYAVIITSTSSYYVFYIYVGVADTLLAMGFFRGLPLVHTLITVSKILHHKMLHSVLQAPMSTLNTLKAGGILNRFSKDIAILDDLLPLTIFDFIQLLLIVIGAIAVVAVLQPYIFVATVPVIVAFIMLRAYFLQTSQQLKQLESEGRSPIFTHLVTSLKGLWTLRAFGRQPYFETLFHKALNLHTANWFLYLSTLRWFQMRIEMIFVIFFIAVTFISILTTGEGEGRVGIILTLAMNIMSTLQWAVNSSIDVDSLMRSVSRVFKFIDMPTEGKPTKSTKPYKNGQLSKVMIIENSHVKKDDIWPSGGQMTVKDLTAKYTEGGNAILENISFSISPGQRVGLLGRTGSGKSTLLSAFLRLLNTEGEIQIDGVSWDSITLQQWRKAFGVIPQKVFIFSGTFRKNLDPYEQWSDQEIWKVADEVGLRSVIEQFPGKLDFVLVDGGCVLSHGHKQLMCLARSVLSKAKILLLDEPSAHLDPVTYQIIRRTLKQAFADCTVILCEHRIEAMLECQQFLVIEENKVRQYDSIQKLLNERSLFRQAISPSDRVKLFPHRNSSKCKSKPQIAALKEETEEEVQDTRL
Assay type: cell-based
Method in brief: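 Read-out: change in voltage-sensing dye fluorescence (FLIPR III) as a measure of F508del conductance. Temperature-corrected (27° C, 24 hrs) NIH 3T3 cells expressing F508del are pretreated with potentiators, dye-loaded, then stimulated with forskolin under a chloride ion gradient using chloride-free gluconate bath.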
For `COc1ccc(Oc2cccc(S(=O)(=O)NC(=O)c3cccnc3N3CC(C)CC3(C)C)n2)cc1OC` (stereo not shown) [Compound 1761, N—[[6-(3,4-dimethoxyphenoxy)-2-pyridyl]sulfonyl]-2-(2,2,4-trimethylpyrrolidin-1-yl)pyridine-3-carboxamide], the EC30 was “++ (“++” means between 3 uM and 10 uM)”.
With `C[C@@H]1CN(c2nc(C(C)(C)C)c(/C=C/C3CCCCC3)cc2C(=O)NS(=O)(=O)c2cccc(N)n2)C(C)(C)C1` [Compound 1484, N-[(6-amino-2-pyridyl)sulfonyl]-6-tert-butyl-5-[(E)-2-cyclohexylvinyl]-2-[(4S)-2,2,4-trimethylpyrrolidin-1-yl]pyridine-3-carboxamide] the EC30 was “+++ (“+++” means <3 uM)”.
In the case of `C[C@@H]1CN(c2nc(-c3ccc(OC(F)(F)F)cc3)ccc2C(=O)NS(=O)(=O)N2CC[C@H](N)C2)C(C)(C)C1` [Compound 1763, N-[(3S)-3-aminopyrrolidin-1-yl]sulfonyl-6-[4-(trifluoromethoxy)phenyl]-2-[(4S)-2,2,4-trimethylpyrrolidin-1-yl]pyridine-3-carboxamide], the EC30 is reported as “+++ (“+++” means <3 uM)”.
`COc1ncc(-c2ccc(C(=O)NS(=O)(=O)c3cccc(N)n3)c(N3CCC(C)CC3)n2)cc1C` [Compound 863, N-[(6-amino-2-pyridyl)sulfonyl]-6-(6-methoxy-5-methyl-3-pyridyl)-2-(4-methyl-1-piperidyl)pyridine-3-carboxamide] was tested, and the EC30 was “++ (“++” means between 3 uM and 10 uM)”.
For `CC(C)COc1cc(F)cc(-c2ccc(C(=O)NS(=O)(=O)c3cccc(N)n3)c(OCC3(C)CC3)n2)c1` [Compound 1668, N-[(6-amino-2-pyridyl)sulfonyl]-6-(3-fluoro-5-isobutoxy-phenyl)-2-[(1-methylcyclopropyl)methoxy]pyridine-3-carboxamide], the EC30 was “+++ (“+++” means <3 uM)”.
For `C[C@@H]1CN(c2nc(C3=CCCN(S(=O)(=O)N4CCCCC4)C3)ccc2C(=O)NS(=O)(=O)c2cccc(N)n2)C(C)(C)C1` [Compound 1942, N-[(6-amino-2-pyridyl)sulfonyl]-6-[1-(1-piperidylsulfonyl)-3,6-dihydro-2H-pyridin-5-yl]-2-[(4S)-2,2,4-trimethylpyrrolidin-1-yl]pyridine-3-carboxamide], the EC30 was “++ (“++” means between 3 uM and 10 uM)”.
With `Cc1cc(C)c(Oc2nc(C(C)(C)C)ccc2C(=O)N=S(N)(=O)c2cccc(N)n2)c(C)c1` (stereo not shown) [Compound 1602, N-[amino-(6-amino-2-pyridyl)-oxo-$1^6-sulfanylidene]-6-tert-butyl-2-(2,4,6-trimethylphenoxy)pyridine-3-carboxamide] the EC30 was “+++ (“+++” means <3 uM)”.
With `CCOCCOc1cc(C)cc(-c2ccc(C(=O)NS(=O)(=O)c3cccc(N)n3)c(N3C[C@@H](C)CC3(C)C)n2)n1` [Compound 1700, N-[(6-amino-2-pyridyl)sulfonyl]-6-[6-(2-ethoxyethoxy)-4-methyl-2-pyridyl]-2-[(4S)-2,2,4-trimethylpyrrolidin-1-yl]pyridine-3-carboxamide] the EC30 was “+++ (“+++” means <3 uM)”.
For `CC(C)COc1cc(F)cc(-c2ccc(C(=O)NS(=O)(=O)c3cccc(N)n3)c(N3CCCC34CC4)n2)c1` [Compound 1333, N-[(6-amino-2-pyridyl)sulfonyl]-2-(7-azaspiro[2.4]heptan-7-yl)-6-(3-fluoro-5-isobutoxy-phenyl)pyridine-3-carboxamide], the EC30 was “+++ (“+++” means <3 uM)”.
`C[C@@H]1CN(c2nc(-c3ccc(F)cc3)ccc2C(=O)NS(=O)(=O)c2ccc[nH]c2=O)C(C)(C)C1` [Compound 1807, 6-(4-fluorophenyl)-N-[(2-oxo-1H-pyridin-3-yl)sulfonyl]-2-[(4S)-2,2,4-trimethylpyrrolidin-1-yl]pyridine-3-carboxamide] was tested, and the EC30 was “+++ (“+++” means <3 uM)”.
With `Cc1cc(C)c(Oc2nc(-c3ccccc3)ccc2C(=O)NS(=O)(=O)c2cccc(NCCN(C)C)n2)c(C)c1` [Compound 1122, N-[[6-(2-dimethylaminoethylamino)-2-pyridyl]sulfonyl]-6-phenyl-2-(2,4,6-trimethylphenoxy)pyridine-3-carboxamide] the EC30 was “++ (“++” means between 3 uM and 10 uM)”.
In the case of `CC(C)COc1cc(F)cc(-c2ccc(C(=O)NS(=O)(=O)c3cccc(N)n3)c(OCCC3CCCO3)n2)c1` (stereo not shown) [Compound 1604, N-[(6-amino-2-pyridyl)sulfonyl]-6-(3-fluoro-5-isobutoxy-phenyl)-2-(2-tetrahydrofuran-2-ylethoxy)pyridine-3-carboxamide], the EC30 is reported as “+++ (“+++” means <3 uM)”.
`CC1CN(c2ncccc2C(=O)NS(=O)(=O)c2cccc(Oc3ccc(Cl)cc3Cl)n2)C(C)(C)C1` (stereo not shown) [Compound 1806, N—[[6-(2,4-dichlorophenoxy)-2-pyridyl]sulfnyl]-2-(2,2,4-trimethylpyrrolidin-1-yl)pyridine-3-carboxamide] was tested, and the EC30 was “+++ (“+++” means <3 uM)”.
`CC1CN(c2nc(-c3ccccc3)ccc2C(=O)NS(=O)(=O)c2cccc(N)n2)C(C)(C)C1` (stereo not shown) [Compound 1334, N-[(6-amino-2-pyridyl)sulfonyl]-6-phenyl-2-(2,2,4-trimethylpyrrolidin-1-yl)pyridine-3-carboxamide] was tested, and the EC30 was “+++ (“+++” means <3 uM)”.
In the case of `CC(C)COc1cc(F)cc(-c2ccc(C(=O)NS(=O)(=O)c3cccc(N)n3)c(N3CCC[C@@H]3C(C)(C)C)n2)c1` [Compound 1170, N-[(6-amino-2-pyridyl)sulfonyl]-2-[(2R)-2-tert-butylpyrrolidin-1-yl]-6-(3-fluoro-5-isobutoxy-phenyl)pyridine-3-carboxamide], the EC30 is reported as “+++ (“+++” means <3 uM)”.
For `C[C@@H]1CN(c2nc(-c3cc(F)c(F)cc3F)ccc2C(=O)NS(=O)(=O)c2ccc[nH]c2=O)C(C)(C)C1` [Compound 1981, N-[(2-oxo-1H-pyridin-3-yl)sulfonyl]-6-(2,4,5-trifluorophenyl)-2-[(4S)-2,2,4-trimethylpyrrolidin-1-yl]pyridine-3-carboxamide], the EC30 was “+++ (“+++” means <3 uM)”.
For `[2H]C([2H])([2H])C([2H])(COc1ccn(-c2ccc(C(=O)NS(=O)(=O)c3cccnc3N)c(N3C[C@@H](C)CC3(C)C)n2)n1)C([2H])([2H])[2H]` [Compound 1887, N-[(2-amino-3-pyridyl)sulfonyl]-6-[3-[2,3,3,3-tetradeuterio-2-(trideuteriomethyl)propoxy]pyrazol-1-yl]-2-[(4S)-2,2,4-trimethylpyrrolidin-1-yl]pyridine-3-carboxamide], the EC30 was “+++ (“+++” means <3 uM)”.
In the case of `CCN(CC)c1ncc(-c2ccc(C(=O)NS(=O)(=O)c3cccc(N)n3)c(N3C[C@@H](C)CC3(C)C)n2)cc1C` [Compound 1915, N-[(6-amino-2-pyridyl)sulfonyl]-6-[6-(diethylamino)-5-methyl-3-pyridyl]-2-[(4S)-2,2,4-trimethylpyrrolidin-1-yl]pyridine-3-carboxamide], the EC30 is reported as “+++ (“+++” means <3 uM)”.
For `COc1ccc(-c2ccc(C(=O)NS(=O)(=O)c3cc[nH]n3)c(Oc3c(C)cc(C)cc3C)n2)cc1` [Compound 1033, 6-(4-methoxyphenyl)-N-(1H-pyrazol-3-ylsulfonyl)-2-(2,4,6-trimethylphenoxy)pyridine-3-carboxamide], the EC30 was “+++ (“+++” means <3 uM)”.
With `CCOc1cccc2c1CN(Cc1c(C)cc(C)cc1C)[C@]2(C)C(=O)NS(=O)(=O)c1cccc(N)n1` [Compound 1372, (1S)—N-[(6-amino-2-pyridyl)sulfonyl]-4-ethoxy-1-methyl-2-[(2,4,6-trimethylphenyl)methyl]isoindoline-1-carboxamide] the EC30 was “+++ (“+++” means <3 uM)”.
For `CC1CCN(c2nc(-c3cc(F)cc(OC(C)C)c3)ccc2C(=O)NS(=O)(=O)c2cc[nH]n2)CC1` [Compound 1042, 6-(3-fluoro-5-isopropoxy-phenyl)-2-(4-methyl-1-piperidyl)-N-(1H-pyrazol-3-ylsulfonyl)pyridine-3-carboxamide], the EC30 was “+++ (“+++” means <3 uM)”.
In the case of `Cc1cc(C)c(Oc2ncc(CCc3ccccc3)cc2C(=O)NS(=O)(=O)c2cccc(N)n2)c(C)c1` [Compound 1253, N-[(6-amino-2-pyridyl)sulfonyl]-5-phenethyl-2-(2,4,6-trimethylphenoxy)pyridine-3-carboxamide], the EC30 is reported as “++ (“++” means between 3 uM and 10 uM)”.
With `CC1CN(c2ncccc2C(=O)NS(=O)(=O)c2cccc(NCc3ccc(Cl)cc3Cl)n2)C(C)(C)C1` (stereo not shown) [Compound 1968, N—[[6-[(2,4-dichlorophenyl)methylamino]-2-pyridyl]sulfonyl]-2-(2,2,4-trimethylpyrrolidin-1-yl)pyridine-3-carboxamide] the EC30 was “+++ (“+++” means <3 uM)”.
For `C/C=C/COc1cccc(S(=O)(=O)NC(=O)c2cccnc2N2CC(C)CC2(C)C)n1` (stereo not shown) [Compound 1881, N—[[6-[(E)-but-2-enoxy]-2-pyridyl]sulfonyl]-2-(2,2,4-trimethylpyrrolidin-1-yl)pyridine-3-carboxamide], the EC30 was “+++ (“+++” means <3 uM)”.
For `CC1CN(c2ncccc2C(=O)NS(=O)(=O)c2cccc(OC(C)c3ccccc3)n2)C(C)(C)C1` (stereo not shown) [Compound 1917, N—[[6-(1-phenylethoxy)-2-pyridyl]sulfonyl]-2-(2,2,4-trimethylpyrrolidin-1-yl)pyridine-3-carboxamide], the EC30 was “+++ (“+++” means <3 uM)”.
With `CC(C)COc1cc(F)cc(-c2ccc(C(=O)NS(=O)(=O)c3cccc(N)n3)c(OCC3CCCCC3)n2)c1` [Compound 1395, N-[(6-amino-2-pyridyl)sulfonyl]-2-(cyclohexylmethoxy)-6-(3-fluoro-5-isobutoxy-phenyl)pyridine-3-carboxamide] the EC30 was “+++ (“+++” means <3 uM)”.
For `COC1CCN(c2nc(C(C)(C)C)ccc2C(=O)NS(=O)(=O)c2ccc(N)cc2)CC1` [Compound 1298, N-(4-aminophenyl)sulfonyl-6-tert-butyl-2-(4-methoxy-1-piperidyl)pyridine-3-carboxamide], the EC30 was “++ (“++” means between 3 uM and 10 uM)”.
`CC(C)COc1cc(F)cc(-c2ccc(C(=O)NS(=O)(=O)N3CCCC(N)C3)c(N3CC(C)CC3(C)C)n2)c1` (stereo not shown) [Compound 1447, N-[(3-amino-1-piperidyl)sulfonyl]-6-(3-fluoro-5-isobutoxy-phenyl)-2-(2,2,4-trimethylpyrrolidin-1-yl)pyridine-3-carboxamide] was tested, and the EC30 was “+++ (“+++” means <3 uM)”.
